Reference: patent publication US20260306476A1, “ANTIBACTERIAL COMPOUND PBT2” (priority 2022, published 2026)
Like-named read-outs stand apart in the source and are kept apart here.

How the values were obtained:
[1] = tested on: Campylobacter jejuni 81-176; experiment: MIC of PBT2 alone (broth); assay type: cell-based; conditions: 81176
Protocol: (§1) The MIC of PBT2 against three Campylobacter jejuni strains was determined. All strains tested were sensitive to PBT2.

[2] = tested on: Campylobacter jejuni NCTC 11168; experiment: MIC of PBT2 alone (broth); assay type: cell-based; conditions: NCTC11168
Protocol: as §1

[3] = tested on: Campylobacter jejuni ATCC 33560; experiment: MIC of PBT2 alone (broth); assay type: cell-based; conditions: ATCC33560
Protocol: as §1

[4] = tested on: Neisseria gonorrhoeae ATCC49226; experiment: MIC of PBT2 and comparators against CLSI reference strain; assay type: cell-based
Source text: 13 multidrug resistant WHO strains of Neisseria gonorrhoeae were selected to cover antimicrobial resistance phenotypes to all the antibiotics currently used.

[5] = tested on: Neisseria gonorrhoeae WHO Z; experiment: Time-kill assay; assay type: cell-based; conditions: PBT2 alone at 0.313 mg/L (MIC)
Source text: FIG. 1: Time-kill curves of Neisseria gonorrhoeae WHO Z in GC broth with or without PBT2. Error bars indicate standard deviation from 3 biological replicates.

[6] = tested on: Helicobacter pylori; experiment: Sensitivity across Helicobacter pylori strains; assay type: cell-based; conditions: strains tested
Protocol: The MIC of PBT2 against four Helicobacter pylori 26695 strains was determined. The strains tested were sensitive to PBT2.

[7] = tested on: erythromycin-resistant group A Streptococcus (GAS); conditions: in the absence of an antibiotic; cited from earlier work
[8] = tested on: Helicobacter pylori ATCC 43504; experiment: MIC of PBT2 alone (agar); assay type: cell-based; conditions: ATCC43504
[9] = tested on: methicillin-resistant Staphylococcus aureus (MRSA); conditions: in the absence of an antibiotic; cited from earlier work
[10] = tested on: Helicobacter pylori CH428; experiment: MIC of PBT2 alone (agar); assay type: cell-based
[11] = tested on: gram-positive and gram-negative bacteria; conditions: PBT2 in the presence of zinc; cited from earlier work
[12] = tested on: vancomycin-resistant Enterococcus (VRE); conditions: in the absence of an antibiotic; cited from earlier work
[13] = tested on: MDR Neisseria gonorrhoeae; experiment: RNA-seq expression profile analysis after PBT2 treatment; assay type: cell-based; conditions: for fold change in gene expression (up- or down-regulated) at 0.156 µg/mL / fold induction at 0.156 µg/mL: Neisseria gonorrhoeae
Protocol: Expression profile analysis using RNA-seq was performed to investigate the mode of action of PBT2 in killing Neisseria gonorrhoeae.

[14] = tested on: non-typeable Haemophilus influenzae (NTHi); experiment: Sensitivity across NTHi strains; assay type: cell-based; conditions: all strains tested
Protocol: The MIC of PBT2 against five non-typeable Haemophilus influenzae (NTHi) strains was determined (CLSI. 2022. Performance Standards for Antimicrobial Susceptibility Testing, 32nd Edition. Clinical and Laboratory Standards Institute).

[15] = tested on: Helicobacter pylori CH426; experiment: MIC of PBT2 alone (agar); assay type: cell-based
[16] = sub-MIC PBT2 0.156 mg/L, cut-off >=2-fold, P<0.05
[17] = up-regulated gene WHOZ_00323 (ABC transporter periplasmic binding protein, iron related)
[18] = up-regulated gene WHOZ_00324 (iron(III) ABC transporter permease)

## CN(C)Cc1ccc2c(Cl)cc(Cl)c(O)c2n1 [PBT2, 5,7-dichloro-2-[(dimethylamino)methyl]quinolin-8-ol]
[1]
  MIC: 0.156 µg/mL
[2]
  MIC: 0.313 µg/mL
[3]
  MIC: 0.156 µg/mL
[4]; ATCC49226, ATCC49226, agar
  MIC: 0.625 µg/mL
[4]; ATCC49226, ATCC49226, broth
  MIC: 0.312 µg/mL
[5]
  time in which antibacterial activity occurred: ≤ 3 h
[6]
  sensitivity: sensitive
[7]
  antibacterial activity: neither PBT2 nor zinc alone displayed antibacterial activity which would be suitable to treat an infection
[8]
  MIC: 2.5 µg/mL
[9]
  antibacterial activity: neither PBT2 nor zinc alone displayed antibacterial activity which would be suitable to treat an infection
[10]
  MIC: 2.5 µg/mL
[11]
  susceptibility of bacteria to antibiotics: more susceptible to antibiotics
[12]
  antibacterial activity: neither PBT2 nor zinc alone displayed antibacterial activity which would be suitable to treat an infection
[13]; read-out: Fold Change, down-regulated gene WHOZ_00293 (Periplasmic protein)
  fold change in gene expression (up- or down-regulated) at 0.156 µg/mL: 3.56
[13]; read-out: Fold Change, down-regulated gene WHOZ_00873 (outer membrane protein)
  fold change in gene expression (up- or down-regulated) at 0.156 µg/mL: 3.36
[13]; read-out: Fold Change, down-regulated gene WHOZ_00996 (Na(+)-translocating NADH-quinone reductase subunit D)
  fold change in gene expression (up- or down-regulated) at 0.156 µg/mL: 3.25
[13]; read-out: Fold Change, down-regulated gene WHOZ_00998 (Na(+)-translocating NADH-quinone reductase subunit B)
  fold change in gene expression (up- or down-regulated) at 0.156 µg/mL: 3.3
[13]; read-out: Fold Change, down-regulated gene WHOZ_01539 (NADH dehydrogenase subunit C)
  fold change in gene expression (up- or down-regulated) at 0.156 µg/mL: 3.32
[13]; read-out: Fold Change, down-regulated gene WHOZ_01541 (NADH dehydrogenase subunit E)
  fold change in gene expression (up- or down-regulated) at 0.156 µg/mL: 3.77
[13]; read-out: Fold Change, down-regulated gene WHOZ_01542 (NADH-quinone oxidoreductase, F subunit)
  fold change in gene expression (up- or down-regulated) at 0.156 µg/mL: 3.57
[13]; read-out: Fold Change, down-regulated gene WHOZ_01545 (NADH-quinone oxidoreductase subunit H)
  fold change in gene expression (up- or down-regulated) at 0.156 µg/mL: 3.58
[13]; read-out: Fold Change, down-regulated gene WHOZ_01546 (NADH dehydrogenase subunit I)
  fold change in gene expression (up- or down-regulated) at 0.156 µg/mL: 4.11
[13]; read-out: Fold Change, down-regulated gene WHOZ_01547 (NADH dehydrogenase subunit J)
  fold change in gene expression (up- or down-regulated) at 0.156 µg/mL: 3.8
[13]; read-out: Fold Change, down-regulated gene WHOZ_01548 (NADH dehydrogenase subunit K)
  fold change in gene expression (up- or down-regulated) at 0.156 µg/mL: 4
[13]; read-out: Fold Change, down-regulated gene WHOZ_01549 (NADH:ubiquinone dehydrogenase, L subunit)
  fold change in gene expression (up- or down-regulated) at 0.156 µg/mL: 3.95
[13]; read-out: Fold Change, down-regulated gene WHOZ_01550 (Predicted HKD family nuclease)
  fold change in gene expression (up- or down-regulated) at 0.156 µg/mL: 3.73
[13]; read-out: Fold Change, down-regulated gene WHOZ_01551 (NADH dehydrogenase subunit M)
  fold change in gene expression (up- or down-regulated) at 0.156 µg/mL: 3.68
[13]; read-out: Fold Change, down-regulated gene WHOZ_01552 (NADH dehydrogenase subunit N)
  fold change in gene expression (up- or down-regulated) at 0.156 µg/mL: 3.41
[13]; read-out: Fold Change, down-regulated gene bfr (bacterioferritin), first entry
  fold change in gene expression (up- or down-regulated) at 0.156 µg/mL: 8.2
[13]; read-out: Fold Change, down-regulated gene bfr (bacterioferritin), second entry
  fold change in gene expression (up- or down-regulated) at 0.156 µg/mL: 7.73
[13]; read-out: Fold Change, down-regulated gene cysK (Cysteine synthetase)
  fold change in gene expression (up- or down-regulated) at 0.156 µg/mL: 3.38
[13]; read-out: Fold Change, down-regulated gene nqrE
  fold change in gene expression (up- or down-regulated) at 0.156 µg/mL: 3.48
[13]; read-out: Fold Change, down-regulated gene nqrF
  fold change in gene expression (up- or down-regulated) at 0.156 µg/mL: 3.47
[13]; read-out: Fold Change, up-regulated gene WHOZ_00302 (MpeR)
  fold induction at 0.156 µg/mL: 20.2
[13]; read-out: Fold Change, up-regulated gene WHOZ_00403 (putative lipoprotein)
  fold induction at 0.156 µg/mL: 19.1
[13]; read-out: Fold Change, up-regulated gene WHOZ_00412 (putative ferredoxin)
  fold induction at 0.156 µg/mL: 4.43
[13]; read-out: Fold Change, up-regulated gene WHOZ_00413 (Thioredoxin)
  fold induction at 0.156 µg/mL: 7.01
[13]; read-out: Fold Change, up-regulated gene WHOZ_00880 (integral membrane protein)
  fold induction at 0.156 µg/mL: 3.91
[13]; read-out: Fold Change, up-regulated gene WHOZ_01151 (TonB-dependent receptor plug domain-containing protein)
  fold induction at 0.156 µg/mL: 4.75
[13]; read-out: Fold Change, up-regulated gene WHOZ_01152 (hemoglobin receptor)
  fold induction at 0.156 µg/mL: 5.13
[13]; read-out: Fold Change, up-regulated gene WHOZ_01153 (hemoglobin receptor)
  fold induction at 0.156 µg/mL: 3.89
[13]; read-out: Fold Change, up-regulated gene WHOZ_01683 (fetA)
  fold induction at 0.156 µg/mL: 4.53
[13]; read-out: Fold Change, up-regulated gene WHOZ_01837 (outer membrane protein)
  fold induction at 0.156 µg/mL: 3.91
[13]; read-out: Fold Change, up-regulated gene WHOZ_01985 (hypothetical periplasmic protein)
  fold induction at 0.156 µg/mL: 5.49
[13]; read-out: Fold Change, up-regulated gene WHOZ_02005 (transferrin-binding protein-like)
  fold induction at 0.156 µg/mL: 10.1
[13]; read-out: Fold Change, up-regulated gene WHOZ_02042 (TonB)
  fold induction at 0.156 µg/mL: 11.9
[13]; read-out: Fold Change, up-regulated gene WHOZ_02043 (ExbB)
  fold induction at 0.156 µg/mL: 10.5
[13]; read-out: Fold Change, up-regulated gene WHOZ_02044 (ExbD protein)
  fold induction at 0.156 µg/mL: 12.5
[13]; read-out: Fold Change, up-regulated gene WP_003690577.1 (hypothetical protein)
  fold induction at 0.156 µg/mL: 4.61
[13]; read-out: Fold Change, up-regulated gene WP_003690710.1 (hypothetical protein)
  fold induction at 0.156 µg/mL: 8.64
[13]; read-out: Fold Change, up-regulated gene fumC (Fumarase C)
  fold induction at 0.156 µg/mL: 12.2
[13]; sub-MIC PBT2 0.156 mg/L, read-out: up-regulation of mpeR
  fold induction at 0.156 µg/mL: 20
[13]; sub-MIC PBT2 0.156 mg/L, read-out: up-regulation of seven genes
  fold induction at 0.156 µg/mL: > 10
[13]; down-regulated gene WHOZ_00293 (Periplasmic protein)
  LogFC: 1.83
[13]; down-regulated gene WHOZ_00873 (outer membrane protein)
  LogFC: 1.75
[13]; down-regulated gene WHOZ_00996 (Na(+)-translocating NADH-quinone reductase subunit D)
  LogFC: 1.70
[13]; down-regulated gene WHOZ_00998 (Na(+)-translocating NADH-quinone reductase subunit B)
  LogFC: 1.72
[13]; down-regulated gene WHOZ_01539 (NADH dehydrogenase subunit C)
  LogFC: 1.73
[13]; down-regulated gene WHOZ_01541 (NADH dehydrogenase subunit E)
  LogFC: 1.92
[13]; down-regulated gene WHOZ_01542 (NADH-quinone oxidoreductase, F subunit)
  LogFC: 1.83
[13]; down-regulated gene WHOZ_01545 (NADH-quinone oxidoreductase subunit H)
  LogFC: 1.84
[13]; down-regulated gene WHOZ_01546 (NADH dehydrogenase subunit I)
  LogFC: 2.04
[13]; down-regulated gene WHOZ_01547 (NADH dehydrogenase subunit J)
  LogFC: 1.93
[13]; down-regulated gene WHOZ_01548 (NADH dehydrogenase subunit K)
  LogFC: 2.00
[13]; down-regulated gene WHOZ_01549 (NADH:ubiquinone dehydrogenase, L subunit)
  LogFC: 1.98
[13]; down-regulated gene WHOZ_01550 (Predicted HKD family nuclease)
  LogFC: 1.90
[13]; down-regulated gene WHOZ_01551 (NADH dehydrogenase subunit M)
  LogFC: 1.88
[13]; down-regulated gene WHOZ_01552 (NADH dehydrogenase subunit N)
  LogFC: 1.77
[13]; down-regulated gene bfr (bacterioferritin), first entry
  LogFC: 3.03
[13]; down-regulated gene bfr (bacterioferritin), second entry
  LogFC: 2.95
[13]; down-regulated gene cysK (Cysteine synthetase)
  LogFC: 1.76
[13]; down-regulated gene nqrE
  LogFC: 1.80
[13]; down-regulated gene nqrF
  LogFC: 1.80
[13]; sub-MIC PBT2 0.156 mg/L, FIG. 3
  regulation of genes encoding NADH-associated proteins: down-regulated
[13]; [16]
  number of down-regulated genes: 96 genes
  number of up-regulated genes: 62 genes
[13]; up-regulated gene WHOZ_00302 (MpeR)
  LogFC: 4.33
[13]; [17]
  Fold Change: 5.44 fold
  LogFC: 2.44
[13]; [18]
  Fold Change: 3.74 fold
  LogFC: 1.90
[13]; up-regulated gene WHOZ_00403 (putative lipoprotein)
  LogFC: 4.26
[13]; up-regulated gene WHOZ_00412 (putative ferredoxin)
  LogFC: 2.15
[13]; up-regulated gene WHOZ_00413 (Thioredoxin)
  LogFC: 2.81
[13]; up-regulated gene WHOZ_00880 (integral membrane protein)
  LogFC: 1.97
[13]; up-regulated gene WHOZ_01151 (TonB-dependent receptor plug domain-containing protein)
  LogFC: 2.25
[13]; up-regulated gene WHOZ_01152 (hemoglobin receptor)
  LogFC: 2.36
[13]; up-regulated gene WHOZ_01153 (hemoglobin receptor)
  LogFC: 1.96
[13]; up-regulated gene WHOZ_01683 (fetA)
  LogFC: 2.18
[13]; up-regulated gene WHOZ_01837 (outer membrane protein)
  LogFC: 1.97
[13]; up-regulated gene WHOZ_01985 (hypothetical periplasmic protein)
  LogFC: 2.46
[13]; up-regulated gene WHOZ_02005 (transferrin-binding protein-like)
  LogFC: 3.33
[13]; up-regulated gene WHOZ_02042 (TonB)
  LogFC: 3.58
[13]; up-regulated gene WHOZ_02043 (ExbB)
  LogFC: 3.40
[13]; up-regulated gene WHOZ_02044 (ExbD protein)
  LogFC: 3.64
[13]; up-regulated gene WP_003690577.1 (hypothetical protein)
  LogFC: 2.20
[13]; up-regulated gene WP_003690710.1 (hypothetical protein)
  LogFC: 3.11
[13]; up-regulated gene fumC (Fumarase C)
  LogFC: 3.61
[14]
  sensitivity: sensitive
[15]
  MIC: 1.25 µg/mL
